This is an account of results in patent publication US20110105603A1, “COMPOSITIONS AND METHODS FOR TREATING BETA-AMYLOID RELATED DISEASES” (priority 2009, published 2011).

Data set [1] relates to brain Aβ40 and brain Aβ42. In words: Example 8: brain Aβ40 and Aβ42 ELISA after oral gavage in wild-type guinea pigs. The settings on record: guinea pig, 10 mg/kg/day oral, 7 days. It is filed as in vivo.
A further data set has as its system Aβ40 and Aβ42. In words: Example 9: brain, CSF and plasma Aβ after once-a-day gavage in guinea pigs. The data set is classed as in vivo, guinea pig. The following applies: once-a-day for one week oral. The text has this: Guinea Pigs. Guinea Pigs (Harley strain, average weight 400 g corresponding to animals about 6 weeks old) were obtained from Charles River (Wilmington, Mass.). The animals were given free access to standard chow and water before and during the experiment. Gavage Formulation: Delivering a drug by gavage offers the advantage of accurate dosing but is traumatic and thus only suitable for relatively short dosing periods. Gavage delivery was used for the guinea pig work. E64d was resuspended in DMSO at indicated concentrations (see Figures, and below) and guinea pigs were gavaged daily using a feeding tube. Vehicle control animals were provided DMSO alone. Guinea Pig Gavage Dosing: Guinea pigs were gavaged daily for one week. Guinea pigs were lightly anesthetized with isoflurane prior to gavaging. 250 μl of compound solution was gavaged daily per animal and animals were sacrificed 4 hrs after the last dosing.

Data set [2] concerns cathepsin B. As to the kind of experiment: Example 9: brain cathepsin B activity in guinea pigs. The data set is classed as in vivo, guinea pig. The following applies: once-a-day oral. The procedure: Guinea Pig Gavage Dosing: Guinea pigs were gavaged daily for one week. Guinea pigs were lightly anesthetized with isoflurane prior to gavaging. 250 μl of compound solution was gavaged daily per animal and animals were sacrificed 4 hrs after the last dosing.
The brain cathepsin B activity in guinea pigs was measured as follows: Cathepsin B activity was determined using a fluorometric assay kit from Abcam, Inc. (catalog ab65300; Cambridge, Mass.) as described by the manufacturer.

In the next data set the test system is BACE1. In words: Example 9: brain BACE1 activity in guinea pigs. It is filed as in vivo, guinea pig. The following applies: once-a-day oral. Here is the method:
Guinea Pig Gavage Dosing: Guinea pigs were gavaged daily for one week. Guinea pigs were lightly anesthetized with isoflurane prior to gavaging. 250 μl of compound solution was gavaged daily per animal and animals were sacrificed 4 hrs after the last dosing. The brain BACE1 activity in guinea pigs was measured by Beta secretase activity was determined using a fluorometric assay kit from Abcam (ab65357) as described by the manufacturer.

The conditions of data set [3]: oral; cited from earlier work.
The conditions of data set [4]: cited from earlier work.
A further data set deals with healthy human volunteers. The following applies: single or continuous 1 week oral administration at about 5 mg/kg/day; cited from earlier work.
For data set [5] the following is noted: animals, radioactive AB-007; cited from earlier work.
In the next data set the test system is rats. The settings on record: cited from earlier work.
The next data set relates to dogs. The settings on record: cited from earlier work.
In the next data set the test system is transgenic APPlon mice. In words: Example 9: Morris water maze, spatial memory deficit in transgenic APPlon mice. The following applies: E64d-doped chow 1 or 3 months, either age group.
Data set [6] has as its system dogs with canine dementia. The settings on record: in one month; cited from earlier work.
The target of data set [7] is Cathepsin B (Homo sapiens, UniProt P07858). As to the kind of experiment: biochemical.

Molecules are shown by their SMILES. Some results are limits rather than exact numbers.

Text for transgenic APPlon mice: Transgenic AD Mice. Transgenic mice expressing human APP containing the wt β-secretase site and the London mutant γ-secretase site sequences (also called “transgenic APPlon mice”, or “London APP mice”) were generated at the Ralph A. Johnson VA Medical Center (Charleston, S.C.) by methods previously described, see e.g., Hook, et al. (2008) J. Biol. Chem. 283:7745-7753. Briefly, APPLn was generated using site-directed mutagenesis to insert the V7171 London mutation into human APP cDNA. The mouse strain was created in a C57BL/6 mouse background using the Thy-1.2 expression cassette driven by the Thy-1 promoter containing an SV40 polyadenylation site. Mice were given free access to food and water before and during the experiment. […]
The memory deficit in transgenic APPln mice (APPlon mice) was measured using the Morris water maze test. Briefly, the spatial memory capability of each animal was assessed by the Morris water maze test as described e.g., by S. Mueller-Steiner (2006) Neuron 51:703-714; using catalog part no. […] Two days following the nonspatial pretraining, the hidden platform was placed in the center of one quadrant of the pool, the animal was released facing the pool wall in a random fashion, the time was recorded (latency period), and the distance traveled to reach the platform was measured using video recording (Smart Video Tracking System; SD Instruments).

On to `CCOC(=O)[C@H]1O[C@@H]1C(=O)N[C@@H](CC(C)C)C(=O)NCCC(C)C` (relative stereo) [AB-007, (2S,3S)-trans-epoxysuccinyl-L-leucyl-amido-3-methylbutane ethyl ester], for which the “reduction of brain Aβ42 relative to vehicle control” value in data set [1] worked out at 42%. In the data set with Aβ40 and Aβ42, the “CSF Aβ” value is listed as “dose response reduction”, the “CSF Aβ(42)” value was “dose response reduction”, the “brain Aβ(40)” value was “dose response reduction” and the “brain Aβ(42)” value was “dose response reduction”. For the same compound, in the data set with Aβ40 and Aβ42, the “plasma Aβ(40)” value is on record as “dose response reduction” and the “plasma Aβ(42)” value is “dose response reduction”. Moreover, the “brain cathepsin B activity” value in the data set on cathepsin B [2] is on record as “dose response reduction”. Besides, in the data set on BACE1, the “brain BACE1 activity” value was “increase”. Further, the “conversion in the gut to E64c” value in data set [3] was “rapidly and completely converted”. Besides, in [4] (high oral doses (500 mg/kg and 1 g/kg)), the “effect on the central nervous system” value is “depress the central nervous system, causing sedation and mild inhibition of pentetrazol-induced seizure”. Also, in data set [4] (maximal intravenous or oral doses, rats), the “influence on vision or hearing” value is “do not influence vision or hearing”. Moreover, in the data set on healthy human volunteers, the “hematological tests, blood chemistry, urinalyses” value is “no changes” and the “pulse, blood pressure, body temperature, grip force, electrocardiogram, physician observations” value was “no change”. Moreover, in data set [5], the “concentration in all other organs, including the brain” value is reported as “corresponding to the plasma concentration or concentrations lower than plasma” and the “kidney concentration relative to plasma concentration” value is listed as approximately 12 times. In the data set with rats (oral, rats), the subacute no-effect dose result is listed as “under 80 mg/kg/day”. Further, in the data set on rats (rat, in vivo), the “chronic toxicity no-effect dose level” value was “below 2 mg/kg/day”; the “target organs for toxicity” value was “liver and kidney”. For the same compound, the “hepatic injury, species sensitivity” value in the data set on rats (rats versus other species) was “hepatic injury seen in rats does not occur in other species”. Also, the “chronic toxicity no-effect dose level” value in the data set on dogs (dog, in vivo) is recorded as less than 5 mg/kg/day. Further, in the data set on dogs (oral, dogs), the subacute no-effect dose was less than 40 mg/kg/day. Further, the “mean latency period relative to age-matched controls” value in the data set on transgenic APPlon mice is recorded as “significantly reduced”.
In the case of `C#CCN(C)[C@H](C)Cc1ccccc1` [Anipryl], the “affected dogs with improved behavior” value in data set [6] is listed as “about 75%”.
What is called IC50 is the concentration that inhibits the measured activity by half. Read a low IC50 as greater potency in that assay. `[2H]C([2H])([2H])C(C)C[C@H](NC(=O)[C@H]1O[C@@H]1C(=O)O)C(=O)NCCC(C)C` (stereo partly drawn) [Compound 1B, (2S,3S)-3-((S)-1-(Isopentylamino)-4-methyl-d3-1-oxopentan-2-ylcarbamoyl)oxirane-2-carboxylic acid] had an IC50 against Cathepsin B [7] of 2 nM.
Same read-out and setting: with `[2H]C([2H])([2H])C([2H])(C[C@H](NC(=O)[C@H]1O[C@@H]1C(=O)O)C(=O)NCCC(C)C)C([2H])([2H])[2H]` [Compound 2B, (2S,3S)-3-((S)-4,5,5,5-d4-1-(isopentylamino)-1-oxo-4-(methyl-d3)pentan-2-ylcarbamoyl)oxirane-2-carboxylic acid] the figure was 1.5 nM; with `[2H][C@@](CC(C)C)(NC(=O)[C@H]1O[C@@H]1C(=O)O)C(=O)NCCC(C)C` [Compound 3B, (2S,3S)-3-((S)-2-d1-1-(isopentylamino)-4-methyl-1-oxopentan-2-ylcarbamoyl)oxirane-2-carboxylic acid], 1.9 nM; with `CC(C)CCNC(=O)[C@H](CC(C)C)NC(=O)[C@H]1O[C@@H]1C(=O)O` [Compound E64c], 1 nM.
For `[2H]C([2H])([2H])C([2H])(CCNC(=O)[C@H](CC(C)C)NC(=O)[C@H]1O[C@@H]1C(=O)OCC)C([2H])([2H])[2H]` [Compound E64d7], in the data set with Aβ40 and Aβ42, the “CSF Aβ” value is reported as “dose response reduction”, the “CSF Aβ(42)” value is listed as “dose response reduction”, the “brain Aβ(40)” value is “dose response reduction” and the “brain Aβ(42)” value is listed as “dose response reduction”. Further, in the data set on Aβ40 and Aβ42, the “plasma Aβ(40)” value was “dose response reduction” and the “plasma Aβ(42)” value was “dose response reduction”. The “brain cathepsin B activity” value with cathepsin B [2] was “dose response reduction”. In addition, in the data set with BACE1, the “brain BACE1 activity” value is recorded as “increase”.
